“Also recorded” adds a separate entry of the source.
How the values were obtained:
aldosterone = assay: antialdosterone effect in the experimental model by Hollmann; assay type: in vivo; conditions: spironolactone=1
Description: The new compounds of Formula I have the properties of neutralizing or reversing the effect of aldosterone or deoxycorticosterone on the elimination of sodium and potassium. The compounds according to this invention are thus suited for the treatment of certain forms of hypertension, e.g., those treatable by spironolactone, edemas, primary aldosteronism, and other endocrine disturbances caused by aldosterone. They can also be used as diuretics.

male patients = conditions: extended treatment of male patients; traced to antiandrogenic side effect; cited from earlier work
women = conditions: ascribed to the gestagenic side effect; cited from earlier work

| SMILES | Relative antialdosterone effect (aldosterone) | undesirable endocrine side effects in men (male patients) | side effects on women (women) |
| --- | --- | --- | --- |
| CC(=O)S[C@@H]1CC2=CC(=O)[C@@H]3C[C@@H]3[C@]2(C)[C@H]2CC[C@@]3(C)[C@@H]([C@@H]4C[C@@H]4[C@@]34CCC(=O)O4)[C@H]12 [B, 7α-acetylthio-1α,2α;15β,16β-dimethylene-3-oxo-17α-pregn-4-ene-21,17-carbolactone] | 2-3 | – | – |
| CC(=O)S[C@@H]1CC2=CC(=O)[C@@H]3C[C@@H]3[C@]2(C)[C@H]2CC[C@@]3(C)[C@@H]([C@H]4C[C@H]4[C@@]34CCC(=O)O4)[C@H]12 [C, 7α-acetylthio-1α,2α;15α,16α-dimethylene-3-oxo-17α-pregn-4-ene-21,17-carbolactone] | 3-4 | – | – |
| CC(=O)S[C@@H]1CC2=CC(=O)CC[C@]2(C)[C@H]2CC[C@@]3(C)[C@@H](CC[C@@]34CCC(=O)O4)[C@H]12 [Spironolactone, spironolactone] | – | gynecomastia; also recorded: impotence | amenorrhea; also recorded: menstrual irregularities |

— patent US4511565A, “7α-Acylthio-1α,2α-methylene- 3-oxo-17α-pregn-4-ene-21,17-carbolactones, their production and pharmaceutical preparations containing them” (Schering Aktiengesellschaft, priority 1982, dated 1985)
